Six molecules from patent US8895583B2, “Soluble guanylate cyclase activators” (Merck Sharp & Dohme Corp., priority 2010, dated 2014) can be followed below.

The assay has as its target T1, sGC α1/β1 heterodimer (Homo sapiens, UniProt Q02108+Q02153).
T1 construct: expressed in transfected cells
T1 sequence (Q02108 1-690 partner): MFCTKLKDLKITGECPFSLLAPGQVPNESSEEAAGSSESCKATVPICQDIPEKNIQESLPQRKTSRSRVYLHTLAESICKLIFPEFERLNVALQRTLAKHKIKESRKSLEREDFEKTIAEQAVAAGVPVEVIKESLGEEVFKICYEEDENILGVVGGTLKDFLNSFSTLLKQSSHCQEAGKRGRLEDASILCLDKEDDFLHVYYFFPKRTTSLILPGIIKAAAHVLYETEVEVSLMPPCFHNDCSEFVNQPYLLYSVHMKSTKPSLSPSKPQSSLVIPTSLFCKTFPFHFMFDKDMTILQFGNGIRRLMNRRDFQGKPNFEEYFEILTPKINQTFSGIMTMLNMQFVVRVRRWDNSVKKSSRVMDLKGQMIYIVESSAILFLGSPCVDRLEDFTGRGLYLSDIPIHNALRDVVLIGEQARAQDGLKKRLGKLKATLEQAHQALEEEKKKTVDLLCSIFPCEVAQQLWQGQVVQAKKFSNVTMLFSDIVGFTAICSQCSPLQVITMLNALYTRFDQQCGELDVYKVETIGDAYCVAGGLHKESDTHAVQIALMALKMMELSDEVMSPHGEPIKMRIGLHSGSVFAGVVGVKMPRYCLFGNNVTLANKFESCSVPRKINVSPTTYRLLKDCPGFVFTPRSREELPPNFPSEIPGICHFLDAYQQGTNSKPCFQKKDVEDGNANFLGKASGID
T1 sequence (Q02153 1-619): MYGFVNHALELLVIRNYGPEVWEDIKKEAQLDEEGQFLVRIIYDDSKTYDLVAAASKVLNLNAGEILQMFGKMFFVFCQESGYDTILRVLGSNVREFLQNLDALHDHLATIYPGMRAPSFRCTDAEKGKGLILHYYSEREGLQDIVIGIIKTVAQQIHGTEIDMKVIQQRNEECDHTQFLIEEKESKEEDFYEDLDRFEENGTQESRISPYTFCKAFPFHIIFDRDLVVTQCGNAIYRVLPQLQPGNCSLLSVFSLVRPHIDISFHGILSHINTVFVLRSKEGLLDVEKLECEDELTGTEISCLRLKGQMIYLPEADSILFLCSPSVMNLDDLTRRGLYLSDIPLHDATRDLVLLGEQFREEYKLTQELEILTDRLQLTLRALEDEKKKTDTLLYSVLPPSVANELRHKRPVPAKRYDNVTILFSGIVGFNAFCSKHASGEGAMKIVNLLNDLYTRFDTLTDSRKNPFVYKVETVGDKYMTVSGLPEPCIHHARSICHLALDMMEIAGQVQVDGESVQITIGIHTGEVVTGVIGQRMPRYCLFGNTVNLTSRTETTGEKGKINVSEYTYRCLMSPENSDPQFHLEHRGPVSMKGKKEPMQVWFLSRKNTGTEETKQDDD
Briefly: Cell-based sGC Functional Assay (cGMP level by HTRF in CHO-K1/sGC cells). The following applies: with ODQ incubation (10 μM); for EC50: read-out: IP (nM) inflection point; for fold induction: read-out: maximum fold induction over DMSO control. From the text: Cell-based sGC Functional Assay
A CHO-K1 cell line stably expressing the sGC α1/β1 heterodimer was generated using a standard transfection protocol. CHO-K1 cells were transfected with plasmids pIREShyghsGCα1 and pIRESneo-hsGCβ1 simultaneously using FUGENE reagent. Clones that stably express both subunits were selected with hygromycin and neomycin for ˜2 weeks. Clone #7 was chosen for the assay and was designated CHO-K1/sGC. CHO-K1/sGC cells were maintained in F-K12 medium containing 10% heat-inactivated Fetal Bovine Serum (FBS), 100 μg/mL penicillin/streptomycin, 0.5 mg/mL hygromycin and 0.25 mg/mL G418. On the day of the assay, cells were harvested in EBSS (Earle's balanced salt solution) Assay Buffer (EAB) containing 5 mM MgCl2, 10 mM HEPES (4-(2-hydroxyethyl)piperazine-1-ethanesulfonic acid) and 0.05% BSA (bovine serum albumin) and cell density was adjusted to 0.75−1.25×10^6 cells/ml with EAB. IBMX (3-isobutyl-1-methylxanthin, 0.5 mM) was added to inhibit degradation of cGMP. Compounds were diluted from DMSO stock solutions and added to the assay at a final DMSO concentration of 1%. Cells were incubated with compounds in the presence and absence of 10 μM of 1H-(1,2,4)oxadiazolo(4,3-a) quinoxalin-1-one (ODQ) for 1 hr at 37° C. At the end of the incubation period, the reaction was terminated and the cells were lysed. The level of intracellular cGMP was determined using an HTRF-based assay kit (CisBio, 62GM2PEC), which detects the displacement of a fluorescence labeled cGMP from its specific antibody. The amount of cGMP was plotted against compound concentration in PRISM software and the inflection point (IP) and maximum fold induction over DMSO control were derived from the plot.
A general note: Time-resolved FRET reads energy transfer from a long-lived donor to a nearby acceptor.

Regarding `O=C(O)c1cnn(-c2cccc(-c3cc(Cl)ccc3-c3ccc(C4CCN(CC(F)(F)F)CC4)cc3)n2)c1C(F)(F)F` [Example 60, 1-(6-{4-chloro-4′-[1-(2,2,2-trifluoroethyl)piperidin-4-yl]biphenyl-2-yl}pyridin-2-yl)-5-(trifluoromethyl)-1H-pyrazole-4-carboxylic acid], the EC50 is 14.6 nM and the fold induction was 231.

For `O=C(O)c1cnn(-c2cccc(-c3cc(C(F)(F)F)cnc3-c3ccc(C4CCN(CC(F)(F)F)CC4)cc3)n2)c1C(F)(F)F` [Example 61, 1-[2′-{4-[1-(2,2,2-trifluoroethyl)piperidin-4-yl]phenyl}-5′-(trifluoromethyl)-2,3′-bipyridin-6-yl]-5-(trifluoromethyl)-1H-pyrazole-4-carboxylic acid], the EC50 came to 16.3 nM and the fold induction came to 248.

For the molecule `O=C(O)c1cnn(-c2cccc(-c3cc(Cl)ccc3-c3ccc(C4CCN(C(=O)C5CC5)CC4)cc3)n2)c1C(F)(F)F` [Example 94, 1-(6-{4-chloro-4′-[1-(cyclopropylcarbonyl)piperidin-4-yl]biphenyl-2-yl}pyridin-2-yl)-5-(trifluoromethyl)-1H-pyrazole-4-carboxylic acid], the EC50 was determined as 30.2 nM and the fold induction was 281.

With `COC(=O)N1CCC(c2ccc(-c3ccc(C(F)(F)F)cc3-c3cccc(-n4ncc(C(=O)O)c4C(F)(F)F)n3)cc2)CC1` [Example 127, 1-{6-[4′-[1-(methoxycarbonyl)piperidin-4-yl]-4-(trifluoromethyl)biphenyl-2-yl]pyridin-2-yl}-5-(trifluoromethyl)-1H-pyrazole-4-carboxylic acid], the EC50 came to 15.8 nM and the fold induction was 119.

`O=C(O)c1cnn(-c2cccc(-c3cc(F)ccc3-c3ccc(C4CCN(CCC(F)(F)F)CC4)cc3)n2)c1C(F)(F)F` [Example 136, 1-(6-{4-fluoro-4′-[1-(3,3,3-trifluoropropyl)piperidin-4-yl]biphenyl-2-yl}pyridin-2-yl)-5-(trifluoromethyl)-1H-pyrazole-4-carboxylic acid]: the EC50 stood at 78.8 nM and the fold induction is 162.

Take `O=C(O)c1cnn(-c2cccc(-c3cc(Cl)ccc3-c3ccc(N4CCN(CC(F)(F)F)CC4)cc3)n2)c1C(F)(F)F` [Example 175, 1-(6-{4-chloro-4′-[4-(2,2,2-trifluoroethyl)piperazin-1-yl]biphenyl-2-yl}pyridin-2-yl)-5-(trifluoromethyl)-1H-pyrazole-4-carboxylic acid]: the EC50 is 9.8 nM and the fold induction was 703.
